Results as given in patent publication US5352804A, “Isolation and structure of Halistatin 2” (Arizona Board of Regents, a body corporate, acting on …, priority 1993, dated 1994).
Like-named read-outs stand apart in the source and are kept apart here.

How the values were obtained:
Format in all cases: cell-based
human tumor cell lines = test: cells
COLO 205 = test: NCI human tumor in vitro primary screen; details: colon cancer
Text: (§1) Only two hundred years ago, many diseases ravaged humankind. Many of these diseases now have been controlled or eradicated. In the development of the means to treat or control these diseases, work with the appropriate common experimental animals was of critical importance. With the various types of cancers, and with the HIV virus, such work is presently ongoing. The research for the treatment of various types of cancer is coordinated in the United States by the National Cancer Institute (NCI). NCI, as a government entity, has been charged with assisting anti-cancer research. To establish whether a substance has anti cancer activity, NCI has established a variety of protocols, one of which involves testing the candidate substance against a cell line panel containing 60 human tumor cell lines. This protocol has been verified and is generally accepted throughout the scientific community. This protocol and the established statistical means of evaluating the results obtained therefrom have been fully described in the literature. See Principles & Practice of Oncology PPO Updates, Volume 3, Number 10, Oct. 1989, by Michael R. Boyd, M.D., Ph.D., for an indepth description of the test protocol. The statistical analysis is explained in "Display and Analysis of Patterns of Differential Activity of Drugs Against Human Tumor Cell Lines: Development of Means Graph and COMPARE Algorithm" Journal of the National Cancer Institute Reports Vol. 81, No. 14, Pg. 1088, Jul. 14, 1989, by K. D. Paull et al. Both of these references are incorporated herein by this reference thereto.
(§2) Biological Testing; Data Display and Analysis; Screening Data Summary. Freshly isolated halistatin 2 was tested in the NCI's human tumor, disease-oriented in vitro primary screen, and data calculations performed. Table 3 is a composite prepared from mean graphs constructed from the averaged GI50 values from quadruplicate screenings of Halistatin 2.

LXFL 529 = test: NCI human tumor in vitro primary screen
Text: as §1, §2

SK-MEL-2 = test: NCI human tumor in vitro primary screen; details: melanoma
Text: as §1, §2

A549/ATCC = test: NCI human tumor in vitro primary screen; details: non-small cell lung cancer
Text: as §1, §2

HOP-18 = test: NCI human tumor in vitro primary screen; details: non-small cell lung cancer
Text: as §1, §2

NCI-H522 = test: NCI human tumor in vitro primary screen
Text: as §1, §2

UACC-257 = test: NCI human tumor in vitro primary screen; details: melanoma
Text: as §1, §2

OVCAR-5 = test: NCI human tumor in vitro primary screen; details: ovarian cancer
Text: as §1, §2

ACHN = test: NCI human tumor in vitro primary screen; details: renal cancer
Text: as §1, §2

SR = test: NCI human tumor in vitro primary screen; details: leukemia, read-out: averaged negative log10 GI50 (converted)
Text: as §1, §2

SNB-75 = test: NCI human tumor in vitro primary screen; details: CNS cancer
Text: as §1, §2

OVCAR-4 = test: NCI human tumor in vitro primary screen; details: ovarian cancer
Text: as §1, §2

XF 498 = test: NCI human tumor in vitro primary screen
Text: as §1, §2

SNB-19 = test: NCI human tumor in vitro primary screen; details: CNS cancer
Text: as §1, §2

SK-OV-3 = test: NCI human tumor in vitro primary screen; details: ovarian cancer
Text: as §1, §2

EKVX = test: NCI human tumor in vitro primary screen; details: non-small cell lung cancer
Text: as §1, §2

[1] = read-out: Log10 GI50 (converted)
[2] = read-out: Log10 TGI (converted)
[3] = read-out: averaged negative log10 GI50 (converted)
[4] = non-small cell lung cancer, read-out: averaged negative log10 GI50 (converted)

For `C=C1CC2CCC34CC5OC6C(O3)C3OC(CCC3OC6(O)C5O4)CC(=O)OC3C(CC4OC(CCC1O2)CC(C)C4=C)OC1CC2OC4(CC2OC1C3C)CC1OC2(CC(C)C3OC5CC(C(O)CO)OC5CC3O2)CC(C)C1O4` (stereo not shown) [halistatin 2], the potency (human tumor cell lines) was “especially noteworthy”, the screening profile (human tumor cell lines) was “characteristic of a general mechanistic class of tubulin-interactive antimitotics” and the GI50 (human tumor cell lines; Homo sapiens) was about 0.7 nM. For the same compound, the GI50 (COLO 205; [1]) was 0.219 nM, the IC (TGI) (COLO 205; [2]) was 1.51 nM and the GI50 (COLO 205; [3]) was 0.219 nM. The GI50 (LXFL 529; LXFL529, non-small cell lung cancer, read-out: Log10 GI50 (converted)) was 0.447 nM, the IC (TGI) (LXFL 529; LXFL529, non-small cell lung cancer, read-out: Log10 TGI (converted)) was 10 nM and the GI50 (LXFL 529; [4]) was 0.447 nM. It also gave a GI50 (SK-MEL-2; [1]) of 0.309 nM, an IC (TGI) (SK-MEL-2; [2]) of 4.57 nM and a GI50 (SK-MEL-2; [3]) of 0.309 nM. The GI50 (A549/ATCC; [1]) was 1.82 nM, the IC (TGI) (A549/ATCC; [2]) was 10 nM and the GI50 (A549/ATCC; [3]) was 1.82 nM. It also gave a GI50 (HOP-18; [1]) of 2.82 nM, an IC (TGI) (HOP-18; [2]) of 10 nM and a GI50 (HOP-18; [3]) of 2.82 nM. For the same compound, the GI50 (NCI-H522; NCl-H522, non-small cell lung cancer, read-out: Log10 GI50 (converted)) was 0.2 nM, the IC (TGI) (NCI-H522; NCl-H522, non-small cell lung cancer, read-out: Log10 TGI (converted)) was 0.55 nM and the GI50 (NCI-H522; [4]) was 0.2 nM. It also gave a GI50 (UACC-257; [1]) of 2.29 nM, an IC (TGI) (UACC-257; [2]) of 10 nM and a GI50 (UACC-257; [3]) of 2.29 nM. For the same compound, the GI50 (OVCAR-5; [1]) was 1.82 nM, the IC (TGI) (OVCAR-5; [2]) was 10 nM and the GI50 (OVCAR-5; [3]) was 1.82 nM. The GI50 (ACHN; [1]) was 4.37 nM, the IC (TGI) (ACHN; [2]) was 10 nM and the GI50 (ACHN; [3]) was 4.37 nM. For the same compound, the GI50 (SR) was 0.214 nM, the GI50 (SNB-75; [1]) was 0.269 nM and the IC (TGI) (SNB-75; [2]) was 10 nM. The GI50 (SNB-75; [3]) was 0.269 nM, the GI50 (OVCAR-4; [1]) was 7.76 nM and the IC (TGI) (OVCAR-4; [2]) was 10 nM. It also gave a GI50 (OVCAR-4; [3]) of 7.76 nM, a GI50 (XF 498; XF498, CNS cancer, read-out: Log10 GI50 (converted)) of 0.427 nM and an IC (TGI) (XF 498; XF498, CNS cancer, read-out: Log10 TGI (converted)) of 4.47 nM. For the same compound, the GI50 (XF 498; XF498, XF 498, CNS cancer, read-out: averaged negative log10 GI50 (converted)) was 0.427 nM, the GI50 (SNB-19; [1]) was 2.09 nM and the IC (TGI) (SNB-19; [2]) was 10 nM. The GI50 (SNB-19; [3]) was 2.09 nM, the GI50 (SK-OV-3; [1]) was 0.676 nM and the IC (TGI) (SK-OV-3; [2]) was 10 nM. For the same compound, the GI50 (SK-OV-3; [3]) was 0.676 nM, the GI50 (EKVX; [1]) was 4.07 nM and the IC (TGI) (EKVX; [2]) was 10 nM. The GI50 (EKVX; [3]) was 4.07 nM.
